Results on 33 molecules are retold here after US20070213359A1 (ACADIA Pharmaceuticals Inc., priority 2005, published 2007).

Chain of Ghrelin receptor (Q92847 whole entry): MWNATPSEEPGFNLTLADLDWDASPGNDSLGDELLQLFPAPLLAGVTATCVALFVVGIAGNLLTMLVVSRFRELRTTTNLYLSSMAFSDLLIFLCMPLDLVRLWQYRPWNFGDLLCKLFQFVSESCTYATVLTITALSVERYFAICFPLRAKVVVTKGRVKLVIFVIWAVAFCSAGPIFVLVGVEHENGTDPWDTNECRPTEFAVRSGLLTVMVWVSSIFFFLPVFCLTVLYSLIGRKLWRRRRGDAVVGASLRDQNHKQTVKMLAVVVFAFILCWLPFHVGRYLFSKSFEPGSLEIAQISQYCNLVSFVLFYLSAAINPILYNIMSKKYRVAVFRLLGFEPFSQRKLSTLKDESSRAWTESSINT

One assay addresses Ghrelin receptor (Homo sapiens, UniProt Q92847). Nature of the assay: Receptor Selection and Amplification Technology (R-SAT) assay. It is filed as cell-based. Further details: expressed in transfected cells; host or cells: NIH3T3. The conditions noted are these: negative logarithm of ligand concentration causing 50% inhibition of constitutive receptor response; transfected NIH3T3 cells; '—' not defined (nd used separately); read-out: RSAT pIC50 (converted).
For the molecule `CCC(=O)c1cn(CCCN2CCC(Oc3ccc(F)cc3)CC2)c2ccccc12`, the IC50 is 794 nM.

Regarding `COc1ccc2c(C(C)=O)cn(CCCN3CCC(C(=O)c4ccccc4)CC3)c2c1`, the IC50 is 794 nM.

In the case of `O=C(c1cn(CCCN2CCC(Oc3ccc(F)cc3)CC2)c2ccccc12)C(F)(F)F`, the IC50 was 794 nM.

`CC(=O)c1cn(CC(C)CN2CCN(C(C)c3ccccc3)CC2)c2ccccc12` (stereo not drawn): the IC50 is 1000 nM.

For the molecule `CCCCC1CCN(CCCn2cc(C(=O)CC)c3ccccc32)CC1`, the IC50 is 1000 nM.

For the molecule `COc1ccc2[nH]c3c(c2c1)CCN(CCCn1cc(C(=O)CC(C)C)c2ccccc21)C3`, the IC50 is 1000 nM.

Take `COc1ccc2c(c1)c(C(C)=O)cn2CCCN1CCC(C(=O)c2ccccc2)CC1`: the IC50 is 1000 nM.

As to `COc1ccc2c(c1)c(C(C)=O)cn2CCCN1CCC(Oc2ccccc2Cl)CC1`, the IC50 was 1000 nM.

For `COc1cccc2c(C(C)=O)cn(CCCN3CCC4CCCCC4C3)c12` (stereo not drawn), the IC50 is 1000 nM.

In the case of `CC(=O)c1cn(CCCN2CCCC(Oc3ccc(Cl)cc3)C2)c2c(Br)cccc12` (stereo not drawn), the IC50 is 1260 nM.

As to `CC(=O)CCc1cn(CCCN2CCC(Oc3ccc(F)cc3)CC2)c2ccccc12`, the IC50 was 1260 nM.

Regarding `CCCCC(=O)c1cn(CCCN2CCN(C(C)c3ccccc3)CC2)c2ccc(OC)cc12` (stereo not drawn), the IC50 is 1260 nM.

With `COc1ccc2c(c1)c(C(C)=O)cn2CCCN1C2CCC1CC(Oc1ccc(Cl)cc1)C2` (stereo not drawn), the IC50 was 1260 nM.

Consider `CCCOC1CCN(CCCn2cc(C(C)=O)c3ccc(OC)cc32)CC1`, for which the IC50 was 1260 nM.

In the case of `CC(=O)c1cn(CCCN2CCC(Oc3ccc(Cl)cc3)CC2)c2cc(Br)ccc12`, the IC50 was 1260 nM.

Consider `CC(=O)c1c(C)n(CCCN2CCN(CCOc3ccccc3)CC2)c2c(Br)cccc12`, for which the IC50 is 1260 nM.

In the case of `CC(=O)c1cn(CCCN2CCN(C(C)c3ccccc3)CC2)c2ccc(Br)cc12` (stereo not drawn), the IC50 was 1260 nM.

For the molecule `O=C(c1cn(CCCN2CCC(Oc3ccc(Cl)cc3)CC2)c2ccccc12)C(F)(F)F`, the IC50 was 1580 nM.

`CCC(=O)c1cn(CCCN2CCC(Cc3ccccc3)CC2)c2ccccc12`: the IC50 is 1580 nM.

For the molecule `CC(C)CC(=O)c1cn(CCCN2CCC(Oc3ccccc3Cl)CC2)c2ccccc12`, the IC50 is 1580 nM.

With `COc1ccccc1C1CCN(CCCn2cc(C(=O)C(F)(F)F)c3ccccc32)CC1`, the IC50 was 1580 nM.

`CCCCC1CCN(CC(C)Cn2c(=O)sc3ccccc32)CC1` (stereo not drawn): the IC50 is 2000 nM.

Turning to `CCCCC1CCN(CC(C)Cn2cc(C(C)=O)c3ccccc32)CC1` (stereo not drawn), the IC50 was 2000 nM.

For `COc1ccccc1C1CCN(CCCCn2cc(C(C)=O)c3ccccc32)CC1`, the IC50 was 2000 nM.

Consider `CC(=O)c1cn(CCCCN2CCN(C(C)c3ccccc3)CC2)c2ccccc12` (stereo not drawn), for which the IC50 was 2000 nM.

With `O=C(c1cn(CCCN2CCC(Oc3ccccc3Cl)CC2)c2ccccc12)C(F)(F)F`, the IC50 was 2000 nM.

As to `COc1ccc2c(c1)c(C(C)=O)cn2CCCN1CCC(c2ccccc2OC)CC1`, the IC50 was 2000 nM.

On to `CC(=O)CCc1cn(CCCN2CCN(C(C)c3ccccc3)CC2)c2ccccc12` (stereo not drawn), for which the IC50 was 2000 nM.

As to `CC(C)CC(=O)c1cn(CCCN2CCC(C(=O)c3ccccc3)CC2)c2ccccc12`, the IC50 is 2000 nM.

Consider `CC(=O)c1cn(CCCN2CCC(Oc3ccc(Cl)cc3)CC2)c2c(Cl)cccc12`, for which the IC50 is 2000 nM.

On to `CCCOC1CCN(CC(C)Cn2c(=O)sc3ccccc32)CC1` (stereo not drawn), for which the IC50 was 2510 nM.

As to `COc1cccc2c(C(C)=O)cn(CCCN3CCC(N(C)C(C)=O)C3)c12` (stereo not drawn), the IC50 was 2510 nM.

Turning to `CCC(=O)c1cn(CCCN2C3CCC2CC(OCC2CC2)C3)c2ccccc12` (stereo not drawn), the IC50 was 2510 nM.

Still in this assay, the particulars now being: percent inhibition at saturating ligand, normalized to reference ligand Substance P analog = 100%; read-out: RSAT Eff(%).
`CCC(=O)c1cn(CCCN2CCC(Oc3ccc(F)cc3)CC2)c2ccccc12`: the Emax was determined as 90%.

For the molecule `COc1ccc2c(C(C)=O)cn(CCCN3CCC(C(=O)c4ccccc4)CC3)c2c1`, the Emax is 66%.

`O=C(c1cn(CCCN2CCC(Oc3ccc(F)cc3)CC2)c2ccccc12)C(F)(F)F`: the Emax came to 75%.

In the case of `CC(=O)c1cn(CC(C)CN2CCN(C(C)c3ccccc3)CC2)c2ccccc12` (stereo not drawn), the Emax came out at 35%.

For the molecule `CCCCC1CCN(CCCn2cc(C(=O)CC)c3ccccc32)CC1`, the Emax was determined as 92%.

With `COc1ccc2c(c1)c(C(C)=O)cn2CCCN1CCC(C(=O)c2ccccc2)CC1`, the Emax came to 72%.

Turning to `COc1ccc2c(c1)c(C(C)=O)cn2CCCN1CCC(Oc2ccccc2Cl)CC1`, the Emax worked out at 95%.

As to `COc1cccc2c(C(C)=O)cn(CCCN3CCC4CCCCC4C3)c12` (stereo not drawn), the Emax worked out at 69%.

`CC(=O)c1cn(CCCN2CCCC(Oc3ccc(Cl)cc3)C2)c2c(Br)cccc12` (stereo not drawn): the Emax is 46%.

`CC(=O)CCc1cn(CCCN2CCC(Oc3ccc(F)cc3)CC2)c2ccccc12`: the Emax was 80%.

Turning to `CCCCC(=O)c1cn(CCCN2CCN(C(C)c3ccccc3)CC2)c2ccc(OC)cc12` (stereo not drawn), the Emax was found to be 81%.

With `COc1ccc2c(c1)c(C(C)=O)cn2CCCN1C2CCC1CC(Oc1ccc(Cl)cc1)C2` (stereo not drawn), the Emax was 105%.

`CCCOC1CCN(CCCn2cc(C(C)=O)c3ccc(OC)cc32)CC1`: the Emax is 61%.

Consider `CC(=O)c1cn(CCCN2CCC(Oc3ccc(Cl)cc3)CC2)c2cc(Br)ccc12`, for which the Emax amounted to 74%.

On to `CC(=O)c1c(C)n(CCCN2CCN(CCOc3ccccc3)CC2)c2c(Br)cccc12`, for which the Emax worked out at 57%.

Turning to `CC(=O)c1cn(CCCN2CCN(C(C)c3ccccc3)CC2)c2ccc(Br)cc12` (stereo not drawn), the Emax was found to be 72%.

As to `O=C(c1cn(CCCN2CCC(Oc3ccc(Cl)cc3)CC2)c2ccccc12)C(F)(F)F`, the Emax worked out at 77%.

In the case of `CCC(=O)c1cn(CCCN2CCC(Cc3ccccc3)CC2)c2ccccc12`, the Emax amounted to 109%.

On to `CC(C)CC(=O)c1cn(CCCN2CCC(Oc3ccccc3Cl)CC2)c2ccccc12`, for which the Emax stood at 96%.

With `COc1ccccc1C1CCN(CCCn2cc(C(=O)C(F)(F)F)c3ccccc32)CC1`, the Emax was determined as 82%.

With `CCCCC1CCN(CC(C)Cn2c(=O)sc3ccccc32)CC1` (stereo not drawn), the Emax turned out to be 84%.

On to `CCCCC1CCN(CC(C)Cn2cc(C(C)=O)c3ccccc32)CC1` (stereo not drawn), for which the Emax turned out to be 76%.

For the molecule `COc1ccccc1C1CCN(CCCCn2cc(C(C)=O)c3ccccc32)CC1`, the Emax came out at 58%.

Turning to `CC(=O)c1cn(CCCCN2CCN(C(C)c3ccccc3)CC2)c2ccccc12` (stereo not drawn), the Emax was found to be 69%.

Consider `O=C(c1cn(CCCN2CCC(Oc3ccccc3Cl)CC2)c2ccccc12)C(F)(F)F`, for which the Emax amounted to 81%.

With `COc1ccc2c(c1)c(C(C)=O)cn2CCCN1CCC(c2ccccc2OC)CC1`, the Emax is 66%.

Turning to `CC(=O)CCc1cn(CCCN2CCN(C(C)c3ccccc3)CC2)c2ccccc12` (stereo not drawn), the Emax stood at 46%.

Regarding `CC(C)CC(=O)c1cn(CCCN2CCC(C(=O)c3ccccc3)CC2)c2ccccc12`, the Emax was 67%.

Consider `CC(=O)c1cn(CCCN2CCC(Oc3ccc(Cl)cc3)CC2)c2c(Cl)cccc12`, for which the Emax stood at 107%.

With `CCCOC1CCN(CC(C)Cn2c(=O)sc3ccccc32)CC1` (stereo not drawn), the Emax stood at 71%.

Consider `COc1cccc2c(C(C)=O)cn(CCCN3CCC(N(C)C(C)=O)C3)c12` (stereo not drawn), for which the Emax was 60%.

For the molecule `CCC(=O)c1cn(CCCN2C3CCC2CC(OCC2CC2)C3)c2ccccc12` (stereo not drawn), the Emax is 120%.

Staying with this assay, now noted: read-out: RSAT Eff(%).
Consider `COc1ccc2[nH]c3c(c2c1)CCN(CCCn1cc(C(=O)CC(C)C)c2ccccc21)C3`, for which the Emax was found to be 123%.
